According to ChEMBL document CHEMBL3627600, “Rapid synthesis and antimicrobial activity of novel 4-oxazolidinone heterocycles” (2015):
Values after ≈ are worked out from the molar mass of the structure shown.

Key:
Assay type in all cases: functional
Staphylococcus aureus [1] = experiment: Antimicrobial activity against methicillin-resistant Staphylococcus aureus ATCC 33591
Acinetobacter baumannii = experiment: Antimicrobial activity against Acinetobacter baumannii ATCC 19606
Staphylococcus aureus [2] = experiment: Antimicrobial activity against Staphylococcus aureus ATCC 29213

SMILES | MIC (Staphylococcus aureus [1]) | MIC (Acinetobacter baumannii) | MIC (Staphylococcus aureus [2])
COc1c(Br)cc(/C=C2\O[C@H]([C@@H](Cl)CCNC(=N)N)NC2=O)cc1Br | 20 µg/mL (≈ 40.3 µM) | 100 µg/mL (≈ 201 µM) | 12.5 µg/mL (≈ 25.2 µM)
COc1c(Br)cc(/C=C2\O[C@H](CCCNC(=N)N)NC2=O)cc1Br | 32 µg/mL (≈ 69.2 µM) | > 128 µg/mL | 32 µg/mL (≈ 69.2 µM)
CCCCCC1NC(=O)/C(=C/c2ccccc2)O1 (stereo not drawn) | 128 µg/mL (≈ 522 µM) | > 128 µg/mL | 64 µg/mL (≈ 261 µM)
CCCCCC1NC(=O)/C(=C/c2ccc(C)cc2)O1 (stereo not drawn) | > 128 µg/mL | > 128 µg/mL | 32 µg/mL (≈ 123 µM)
CCCCCC1NC(=O)/C(=C/c2ccc(C(C)(C)C)cc2)O1 (stereo not drawn) | > 128 µg/mL | > 128 µg/mL | > 128 µg/mL
CCCCCC1NC(=O)/C(=C/c2ccc(F)cc2)O1 (stereo not drawn) | > 128 µg/mL | > 128 µg/mL | > 128 µg/mL
CCCCCC1NC(=O)/C(=C/c2ccc(Cl)cc2)O1 (stereo not drawn) | > 128 µg/mL | > 128 µg/mL | > 128 µg/mL
CCCCCC1NC(=O)/C(=C/c2ccc(C(F)(F)F)cc2)O1 (stereo not drawn) | 16 µg/mL (≈ 51.1 µM) | > 128 µg/mL | 16 µg/mL (≈ 51.1 µM)
CCCCCC1NC(=O)/C(=C/c2ccccc2[N+](=O)[O-])O1 (stereo not drawn) | > 128 µg/mL | > 128 µg/mL | > 128 µg/mL
CCCCCC1NC(=O)/C(=C/c2cc(Br)c(OC)c(Br)c2)O1 (stereo not drawn) | 32 µg/mL (≈ 73.9 µM) | > 128 µg/mL | 16 µg/mL (≈ 36.9 µM)
CCCCCC1NC(=O)/C(=C/c2ccc(OC)cc2)O1 (stereo not drawn) | > 128 µg/mL | > 128 µg/mL | > 128 µg/mL
CCCCCC1NC(=O)/C(=C/c2ccc([N+](=O)[O-])cc2)O1 (stereo not drawn) | 32 µg/mL (≈ 110 µM) | > 128 µg/mL | 32 µg/mL (≈ 110 µM)
CC(=O)NC[C@H]1CN(c2ccc(N3CCOCC3)c(F)c2)C(=O)O1 [LINEZOLID] | 1 µg/mL (≈ 2.96 µM) | > 128 µg/mL | 0.5 µg/mL (≈ 1.48 µM)
CN(C)[C@@H]1C(O)=C(C(N)=O)C(=O)[C@@]2(O)C(O)=C3C(=O)c4c(O)cccc4[C@@](C)(O)[C@H]3C[C@@H]12 [TETRACYCLINE] | 128 µg/mL (≈ 288 µM) | 2 µg/mL (≈ 4.5 µM) | 0.25 µg/mL (≈ 0.563 µM)
CN[C@H](CC(C)C)C(=O)N[C@H]1C(=O)N[C@@H](CC(N)=O)C(=O)N[C@H]2C(=O)N[C@H]3C(=O)N[C@H](C(=O)N[C@H](C(=O)O)c4cc(O)cc(O)c4-c4cc3ccc4O)[C@H](O)c3ccc(c(Cl)c3)Oc3cc2cc(c3O[C@@H]2O[C@H](CO)[C@@H](O)[C@H](O)[C@H]2O[C@H]2C[C@](C)(N)[C@H](O)[C@H](C)O2)Oc2ccc(cc2Cl)[C@H]1O [VANCOMYCIN] |  | > 128 µg/mL | 
